Data on two compounds can be found in paper PMC5995442, “Drug discovery with an RBM20 dependent titin splice reporter identifies cardenolides as lead structures to improve cardiac filling” (PLoS ONE, 2018).

One data set has as its system HEK293.EBNA cells. The experiment in a line: Cell viability, resazurin based staining (PrestoBlue). The settings on record: for IC50: Homo sapiens, HEK293-EBNA. Also noted: species or system human. The text has this: (§1) Cells transfected were at a confluency of 50-60%.
In general terms: The colour change of resazurin is a common sign of viable cells or microbes.

In data set [1] the test system is titin minigene TTN Ex241-43 transcripts. The experiment in a line: RT-PCR / RT-qPCR of transcripts from titin minigene TTN Ex241-43 (I96-98). It counts as cell-based, human. The text has this: The objective of our study was to identify and evaluate small molecules with the potential to modulate alternative splicing via an unbiased chemical high-throughput screening approach. Using transient transfection of a dual luciferase splicing reporter assay (DLR-assay) in HEK293.EBNA cells and a RBM20 expression construct, we investigated >34.000 substances for their effect on alternative exon exclusion from our RBM20 dependent titin PEVK4-13 splicing reporter. For the primary screen (pilot screen), each compound was tested at 10 μM (single point) and compared to an untreated control. Positive hits leading to differential exon usage (exceeding three standard deviations) were picked for independent validation in 9 serial 2-fold dilutions starting at 20 μM. Compounds that produced a concentration dependent effect were validated manually in the 96-well format and cytotoxicity was evaluated. To minimize the detection of false positives, we excluded compounds with structural homology to each luciferase’s natural substrate. To determine the EC50 of candidates we calculated dose response curves using a non-linear least-squares fitting routine available within the GNUPLOT package (accessible online: http://ic50.tk/index.html). We evaluated the effect on splice activity on the RNA level by RT-qPCR of isoforms generated from a titin minigene containing TTN Ex241-43 (corresponding to TTN I-band exon I96-98) in the presence of the potential splice modulators. […]
Total RNA from HEK293.EBNA cells was extracted using RNeasy Micro Kit (Qiagen, Hilden, Germany) according to the manufacturer’s instructions. […] Quantitative RT-PCR was performed using SYBRGreen master mix (Applied Biosystems by Thermo Fisher Scientific Inc., USA) on a 7900 HT RT-cycler (Applied Biosystems by Thermo Fisher Scientific, Inc., USA). […] To quantification gene expression, we used the ΔΔCT method normalized to 18S or to the alternative transcripts generated from the splicing reporter. PSI values were calculated as ratio of unspliced and spliced reporter transcript. […]
For orientation: In qPCR the cycle at which signal appears reflects the starting amount.

The nature of data set [2]: Dual luciferase splicing reporter assay (DLR assay), RBM20 co-transfected. In kind it is cell-based, human. The settings on record: human; RBM20 titin reporter, N = 3; read-out: cell viability below which the splice reporter readout is affected.
Text: (§2) The objective of our study was to identify and evaluate small molecules with the potential to modulate alternative splicing via an unbiased chemical high-throughput screening approach. Using transient transfection of a dual luciferase splicing reporter assay (DLR-assay) in HEK293.EBNA cells and a RBM20 expression construct, we investigated >34.000 substances for their effect on alternative exon exclusion from our RBM20 dependent titin PEVK4-13 splicing reporter. For the primary screen (pilot screen), each compound was tested at 10 μM (single point) and compared to an untreated control. Positive hits leading to differential exon usage (exceeding three standard deviations) were picked for independent validation in 9 serial 2-fold dilutions starting at 20 μM. Compounds that produced a concentration dependent effect were validated manually in the 96-well format and cytotoxicity was evaluated. To minimize the detection of false positives, we excluded compounds with structural homology to each luciferase’s natural substrate. To determine the EC50 of candidates we calculated dose response curves using a non-linear least-squares fitting routine available within the GNUPLOT package (accessible online: http://ic50.tk/index.html). […] Compounds that produced a concentration depend effect in the DLR-assay and altered the alternative transcript levels were regarded as validated alternative splicing modulators.
as §1
(§3) 5000 HEK293.EBNA cells were seeded in clear bottom, white 384-well plates (Corning by Sigma-Aldrich Chemie GmbH, Munich, Germany) using an automated cell dispenser (Biotek, Bad Friedrichshall, Germany). 24 h after cell seeding the expression plasmids were delivered using a Freedom EVO® robotic workstation (TECAN, Maennedorf, Switzerland) equipped with a MultiChannel Arm™. Cells were transiently transfected with 45 ng plasmid DNA ([…] and 40 ng RBM20 or 24 ng of the negative control pcDNA3.1 ad 45 ng with bacterial expression plasmid pBSSK). Compounds were added to the plates the following day using the same robotic platform. Luciferase activity was determined using Dual-Glo® Luciferase Assay System (Promega GmbH, Mannheim, Germany) on an Infinite® M1000 Pro (TECAN, Maennedorf, Switzerland) plate reader around 60 hours post-transfection. Assay robustness was evaluated by calculation z’ scores using an online tool provided by the Screening Unit at FMP Berlin (http://www.screeningunit-fmp.net/tools/z-prime.php).

The subject of data set [3] is RBM20 dependent titin PEVK4-13 splicing reporter. The description is as above. In kind it is cell-based, human. As to conditions: for IC50: Homo sapiens.
Text: as §2, §1, §3

The subject of data set [4] is RBFOX1 dependent splicing of FMNL3. The experiment in a line: cells. The protocol: (§4) For transfection 25000 cells/well were seeded on 96-well Nunc F96 MicroWell™ plates (Life Technologies GmbH, Darmstadt, Germany) and transfected with a total of 200 ng of plasmid DNA of which 1 ng was splice reporter plus a corresponding amount of RBM20, RBFOX1 or control plasmid (pcDNA3.1) in a 20x molar excess. To deliver plasmid DNA we used the 40 kDa linear polyethylenimine (Polysciences Europe GmbH, Hirschberg, Germany) at a 1:3 ratio (DNA:PEI40). Cells transfected were at a confluency of 50-60%. Compounds were applied 24 h post-transfection at a final DMSO concentration of 1%. Luciferase activity was measured 60 hours post-transfection using the Dual-Luciferase® Reporter Assay System (Promega GmbH, Mannheim, Germany) on an Infinite® M200 Pro (TECAN, Maennedorf, Switzerland) plate reader. Ratios of firefly to renilla luciferase activity were normalized to the control (pcDNA3.1) without the splicing factor expression construct. Cell viability was measured 60 h post-transfection using a resazurin based staining of metabolically active cells (PrestoBlue®, Life Technologies GmbH, Darmstadt, Germany).
(§5) To evaluate the specificity of the splice effect, we generated an independent splice reporter based on formin-like 3 (FMNL3) and its splice factor RBFOX1 (S5 Fig). […] To exclude an unspecific effect of cell death on RBM20 dependent splicing, we used the steroidal homolog digitonin to induce cell death.

The nature of another data set: in vitro. The settings on record: human. The protocol:
as §4, §5

For data set [5], the target named is Na+/K+ ATPase human erythrocytes. Further details: method as in PMID 11072868. As to conditions: cited from earlier work.
Another data set has as its system RBM20 protein levels. The experiment in a line: RBM20 protein expression by immunoblot in co-transfected HEK293 cells. In kind it is cell-based, human. As to conditions: 0.235 μM digoxin, co-transfected HEK293 cells. The protocol: For immunodetection, HEK293.EBNA samples were harvested by rinsing them of the cell culture substrate using PBS at 37°C and subsequently used for downstream processing or snap frozen in liquid nitrogen. For protein extraction samples were suspended in RIPA buffer (50 mM Tris pH 8.0, 150 mM NaCl, 1% NP-40, 0.25% sodium deoxycholate, 1.0 mM EDTA; 0.1% SDS) and lysed via sonication with 20 bursts at 70% energy using a VialTweeter (Hielscher Ultrasonics GmbH, Teltow, Germany). Protein concentration was estimated after 20’ precipitation of cell debris at 13,000xg for 20 min at 4°C using BCA assay (Life Technologies GmbH, Darmstadt, Germany [23225]). Samples were kept cool at any time. Lysates were separated by SDS-PAGE [14] and blotted on PVDF membranes. Blotted antigens were probed with mouse anti-c-myc 9E10 ([M5546], Sigma-Aldrich Chemie GmbH, Munich, Germany) tag antibody at 1:2000 and detected using a sheep anti-mouse IgG-HRP (GE Healthcare Europe GmbH, Freiburg, Germany [NA9310V]) conjugate 1:5000 follow by visualization with AceGlow™ (VWR PEQL37) on a FUSION FX7 CCD camera system (Vilber Lourmat Deutschland GmbH, Eberhardzell, Germany).

Where [6] appears, read: HEK293 cells, 60 h post-transfection, RBM20/titin reporter transfected, read-out: Viability IC50.

“Also recorded” adds a separate entry of the source. Read-outs that look alike come from different tables or passages of the source.

`C[C@@H]1CC[C@@]2(OC1)O[C@H]1[C@@H](O)[C@H]3[C@@H]4CC[C@H]5C[C@@H](O[C@@H]6O[C@H](CO)[C@H](O[C@@H]7O[C@H](CO)[C@@H](O)[C@H](O[C@@H]8OC[C@@H](O)[C@H](O)[C@H]8O)[C@H]7O[C@@H]7O[C@H](CO)[C@H](O)[C@H](O[C@@H]8O[C@H](CO)[C@@H](O)[C@H](O)[C@H]8O)[C@H]7O)[C@H](O)[C@H]6O)[C@H](O)C[C@]5(C)[C@H]4CC[C@]3(C)[C@H]1[C@@H]2C` [Digitonin]: the IC50 with HEK293.EBNA cells (setting [6]) worked out at 2670 ± 212 nM; in data set [3] (FLuc/RLuc ratio, HEK293 cells, 96-well format, inset table of figure, read-out: Splicing IC50) it was 14.1 ± 3.98 µM. Moreover, the “effect on splicing on the mRNA level (in words)” value in data set [1] (RT-PCR of minigene, HEK293) was “no effect on the mRNA level”. Besides, the viability (commonly the share of living cells, or the viability signal relative to a control) at 36 h in data set [2] was less than 20%. Also, the “effect on RBM20-mediated titin splicing (in words)” value in data set [3] (DLR assay, HEK293) is recorded as “little effect at the highest doses only; also recorded: do not interfere with RBM20 dependent splicing”.

Consider `C[C@H]1O[C@@H](O[C@H]2[C@@H](O)C[C@H](O[C@H]3[C@@H](O)C[C@H](O[C@H]4CC[C@@]5(C)[C@H](CC[C@@H]6[C@@H]5C[C@@H](O)[C@]5(C)[C@@H](C7=CC(=O)OC7)CC[C@]65O)C4)O[C@@H]3C)O[C@@H]2C)C[C@H](O)[C@@H]1O` [Digoxin], for which the IC50 is 2600 nM in data set [4] (Homo sapiens, HEK293, read-out: FMNL3/RBFOX1 Splicing IC50, FMNL3 exons 25-26 reporter co-transfected with RBFOX1, HEK293); 132 nM in the data set on HEK293.EBNA cells (HEK293, read-out: IC50 viability (half-maximal lethal dose)); 132 ± 6.6 nM in the data set with HEK293.EBNA cells (setting [6]); 0.39 nM in data set [5]; 0.153 µM in data set [3] (HEK293, read-out: IC50 Splicing HEK293 cells). For the same compound, the “effect on FMNL3 splicing (in words)” value in data set [4] (concentrations of up to 20x the half-maximal lethal dose) was “not affected”. The compound further had a viability at 36 h in the data set “in vitro” of less than 30%. In addition, in the data set on HEK293.EBNA cells (dose response fit, head prints [μM], fits IC50 only), the “Viability Hill Coeff.” value is recorded as 2.2906 ± 0.2256. Also, the “Viability Max” value in the data set on HEK293.EBNA cells (fit maximum of relative viability, head prints [μM], fits IC50 only) came to 1.0089 ± 0.0119. Further, the “intron retention / mRNA maturation (in words)” value in data set [1] (HEK293 transfected with RBM20 and minigene I96-98) was “does not cause intron retention”. Moreover, the “Splicing Hill Coeff.” value in data set [3] worked out at 2.8711 ± 0.6588. In addition, the “effect on RBM20-mediated titin splicing (in words)” value in data set [3] was “efficiently inhibit RBM20 mediated splicing”. Further, the “RBM20 protein levels reduced to” value in the data set with RBM20 protein levels was found to be 10%.
